According to patent US20050032708A1, “Modulation of physiological processes and agents useful for same” (priority 2001, published 2005):
Entries after “also recorded” stand apart in the source; their conditions may differ.

Columns and labels:
[1] = cited from earlier work
[2] = Body weights and daily water consumption of rats receiving NAC in drinking water for 14 days; format: in vivo
Method: (§1) Male Sprague Dawley rats (380-430 g) were obtained from Department of Pathology, University of Melbourne. On arrival rats were housed in pairs in a temperature-controlled (20-24° C.) colony room maintained on a 12 hr light-dark cycle (6 am-6 pm). Rats had continuous access to food and water (plain or treated) and were weighed on arrival and then daily from onset of experiment. Rats were allowed to adjust to the new environment for 3 days before starting the experiment.
(§2) This experiment consisted of 24 rats in total. Eight rats received plain drinking water (controls), 8 rats received 0.5% NAC (Sigma) in their drinking water (low dose) and 8 rats received 2% NAC in their drinking water (high dose). Drug treatment was administered for 14 consecutive days. Bottles were cleaned and fresh drug solution was made up on days 4, 8 and 11. Body weights and amount of drinking water consumed per box were measured on a daily basis. After 7 days of drug treatment, behavioural testing began and continued until day 14 of treatment.

humans = details: cited from earlier work
Male Sprague Dawley rats = test: Effect of amphetamine on locomotor activity of rats receiving NAC in drinking water; format: in vivo
Method: as §1, §2
Locomotor activity was assessed in 8 automated photo cell cages, data being collected in 5-min intervals. Animals were placed individually in cages and baseline activity was measured during the first 30 minutes. After 30 minutes rats received a subcutaneous injection of either saline (vehicle), 0.5 mg/kg or 5 mg/kg amphetamine and locomotor activity was measured for a further 90 minutes. Drug treatment and time of day of the experiment were both randomised (see table 1). Each rat received 3 locomotor sessions in total. A period of 3 days was allowed between locomotor experiments to ensure complete elimination of amphetamine.
Locomotor hyperactivity was obtained as total distance moved per 30 min, i.e. before injection and 0-30 min, 30-60 min and 60-90 min after injection. In order to account for slight variations in baseline activity, post-injection behaviour was expressed a change of baseline activity. Average data for rats receiving water, 0.5% NAC, or 2% NAC was compared using analysis of variance for repeated measures (ANOVA) using the Systat 9.0 software package.

[3] = 600-1200 mg/day for three weeks, Ziegler and Gries, 1997

O=C(O)CCCCC1CCSS1 (stereo not drawn) [Alpha-lipoic Acid]
Symptoms of diabetic neuropathy [1, 3]: reproducibly demonstrated benefit
Tolerability [1, 3]: tolerated with no adverse effects

CC(=O)N[C@@H](CS)C(=O)O [NAC, N-acetyl cysteine]
Average daily water consumption per box ([2]; 0.5% NAC in drinking water (low dose), 14 days of treatment, control rats 77-90 ml): 60 to 72 mL
Body weight over the treatment period compared with controls ([2]; 2% NAC in drinking water (high dose), 14 days): marked decrease in body weight
Plasma cystine levels (humans; dose of 3 g/day (4 capsules, 2 bid)): sustains elevated plasma cystine levels
Human dosing without adverse effects (humans; human, Louwerse et al., 1995): up to 5 g/day
Interaction of treatment x time, 5 mg/kg of amphetamine, vs controls (significant or not) (Male Sprague Dawley rats; 0.5% NAC): not
Overall effect of 0.5 mg/kg of amphetamine on locomotor activity vs water controls (Male Sprague Dawley rats; 0.5% NAC in drinking water, F(1,14)=5.11, P=0.04): tended to be greater
Baseline locomotor activity before injection, averaged over three sessions, vs water controls (Male Sprague Dawley rats; 0.5% or 2% NAC in drinking water, difference did not reach statistical significance): tended to be lower
Duration of locomotor hyperactivity after 5 mg/kg of amphetamine (Male Sprague Dawley rats; 2% NAC): maintained longer than in controls; also recorded: prolonged effect
Overall effect of 0.5 mg/kg of amphetamine on locomotor activity vs water controls (Male Sprague Dawley rats; 2% NAC in drinking water, F(1,13)=4.3, P=0.06): tended to be greater
Overall effect of 5 mg/kg of amphetamine on locomotor activity vs controls (Male Sprague Dawley rats; 2% NAC to drink, failed to reach overall statistical significance): tended to be greater
Interaction of treatment x time, 5 mg/kg of amphetamine, vs controls (Male Sprague Dawley rats; 2% NAC, F(2,28)=4.9, P=0.024): significant
Maximal effect of 0.5 mg/kg of amphetamine on locomotor activity vs water controls (Male Sprague Dawley rats; 30-60 min after injection, either NAC dose (0.5% or 2%), 0.5 mg/kg): significantly greater; also recorded: greater maximal effect

C[Se]CC[C@H](N)C(=O)O [Selenomethionione]
Adverse effects of long-term dose ([1]; 200 ug, one per day): no known adverse effects

O=C1O[C@H]([C@@H](O)CO)C(O)=C1O [Vitamin C]
Elevation of plasma levels ([1]; 500 mg daily): 60%

Cc1c(C)c2c(c(C)c1O)CC[C@@](C)(CCC[C@H](C)CCC[C@H](C)CCCC(C)C)O2 [alpha-tocopherol]
Adverse effects ([1]; 400 IU): without causing adverse effects
CSF levels ([1]; 400 IU): sufficient to increase CSF levels
Doses that may cause coagulopathies and can be a source of radicals ([1]; Bowry et al., 1995): higher than 2000 IU/day

CC(N)Cc1ccccc1 (stereo not drawn) [amphetamine]
Locomotor activity after subcutaneous injection of amphetamine (Male Sprague Dawley rats; 0.5 mg/kg of amphetamine, 90 min after injection): induced a behavioural hyperactivity
Locomotor activity after subcutaneous injection of amphetamine (Male Sprague Dawley rats; 5 mg/kg of amphetamine, activity fell to low levels later in the 90 min observation period): initially induced marked behavioural hyperactivity
